Measurements: PubChem BioAssay (NCI)
Several values for one entry are separate records, joined by “and”; a condition that tells them apart may be missing. Equal values may be shown once.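 Interpolation was linear, between the two tested concentrations surrounding the appropriate level; five concentrations were tested over 48 hours in 96-well plates. GI50 marks 50% less growth. TGI: concentration producing complete growth inhibition.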

Tests used:
Test in all cases: NCI tumour cell line growth inhibition, 48 h
ACHN renal = system: ACHN renal
NCI-H522 lung = system: NCI-H522 lung
M19-MEL melanoma = system: M19-MEL melanoma
SK-MEL-2 melanoma = system: SK-MEL-2 melanoma
DLD-1 colon = system: DLD-1 colon
LXFL 529 NSCLC = system: LXFL 529 NSCLC
NCI/ADR-RES ovarian = system: NCI/ADR-RES ovarian
T-47D breast = system: T-47D breast
MCF7 breast = system: MCF7 breast
PC-3 prostate = system: PC-3 prostate
MDA-N = system: MDA-N

Compound | TGI (ACHN renal) | TGI (NCI-H522 lung) | TGI (M19-MEL melanoma) [µM] | TGI (SK-MEL-2 melanoma) | TGI (DLD-1 colon) [µM] | TGI (LXFL 529 NSCLC) [µM] | TGI (NCI/ADR-RES ovarian) | TGI (T-47D breast) [µM] | TGI (MCF7 breast) | TGI (PC-3 prostate) | TGI (MDA-N) | GI50 (NCI/ADR-RES ovarian) [µM] | GI50 (SK-MEL-2 melanoma) [µM] | GI50 (MDA-N) [µM]
COc1cccc2c1C1=CC(=O)CCC1C(C)(C)O2 (stereo not drawn) | > 100 µM | > 100 µM | > 100 | > 100 µM | > 100 | > 100 |  |  |  |  |  |  |  | 
Fc1cccc2nc(-c3ccccc3)cc(OCc3ccccc3)c12 | > 100 µM | > 100 µM |  | > 100 µM |  |  | > 100 µM | > 100 | > 100 µM | > 100 µM | > 100 µM |  |  | 
CC1(C)C2CCC1C(=O)C(C=O)C2 (stereo not drawn) | > 100 µM | > 100 µM |  | > 100 µM |  |  | > 100 µM | > 100 | > 100 µM | > 100 µM | > 100 µM |  |  | 
O=C1CSC2(CCN(CCCN3c4ccccc4Sc4ccc(Cl)cc43)CC2)N1 | 23.7 µM | 23.6 µM |  | 31 µM |  |  | 20.2 µM | 15.6 | 18.5 µM | 16.9 µM | 23.6 µM |  |  | 
CSc1n[n+](C)cc(N)c1N | > 100 µM | > 100 µM |  | > 100 µM |  |  | > 100 µM | > 100 | > 100 µM | > 100 µM | > 100 µM |  |  | 
CC1=Nn2c(nc3sc4c(c3c2=O)CCCC4)SC1 | > 100 µM | > 100 µM |  | > 100 µM |  |  | > 100 µM | > 100 | > 100 µM | > 100 µM | > 31.6 µM |  |  | 
COC1C(O)=C2C(=O)OC(C)(O)/C=C/C=C\C=C/C=C/C(c3ccccc3)NC(=O)/C=C/C=C/C=C/C=C/C2(C)C1O (stereo not drawn) | 0.0323 µM and 0.119 µM | 0.038 µM and 0.11 µM |  | 0.235 µM and 0.318 µM |  |  | 0.0535 µM and 0.206 µM | 0.0707 | 0.0273 µM and 0.169 µM | 0.136 µM and 0.159 µM | 0.141 µM and 0.17 µM | 0.0142 | 0.0929 | 0.0329
Cc1ccc(-n2c(C)nc3c2C(=O)c2ccccc2C3=O)cc1 | > 100 µM | > 100 µM | 25.7 | > 100 µM | > 100 | > 100 |  |  |  |  |  |  |  | 
CC(=O)Nc1ccc(Nc2nc(=O)[nH]c(=O)[nH]2)cc1 | > 100 µM | > 100 µM |  | > 100 µM |  |  | > 100 µM | > 100 | > 100 µM | > 100 µM | > 100 µM |  |  | 
COc1cccc(C2c3cc4c(cc3OC(N3CCOCC3)C2C)OCO4)c1O (stereo not drawn) | 72 µM | 8.39 µM |  | 40.7 µM |  |  | 19.1 µM | 36.4 | > 44.2 µM | > 58.6 µM | 4.58 µM |  |  | 
c1ccc2c(c1)SC1Sc3ccccc3[S+]21 (stereo not drawn) | 20.4 µM | 26.1 µM |  | > 100 µM |  |  | 51 µM | > 100 | > 69.2 µM | > 100 µM | 53.6 µM |  |  | 
Cn1c(N/N=C/c2ccc(Cl)cc2)nc(-c2ccc(Cl)cc2)c(C#N)c1=O | > 100 µM | 33.6 µM |  | 33.1 µM |  |  | > 100 µM | > 100 | 67.8 µM | 90.1 µM | > 100 µM |  |  | 
c1ccc(N=NNNc2ccc(-c3nc4ccccc4[nH]3)cc2)cc1 | > 100 µM | > 100 µM |  | 88.7 µM |  |  | 75.1 µM | 39.1 | 69.9 µM | 82.3 µM | > 100 µM |  |  | 
